Laboratory results from patent publication US5686452A, “Indane derivative and processes for preparing the same” (Tanabe Seiyaku Co., Ltd., priority 1994, dated 1997).

test system: rat glomerular nephritis; assay: Action on rat glomerular nephritis (nephrotoxic serum-induced nephritis; urinary protein excretion); type: in vivo; settings: male WKY rats, NTS-induced nephritis; 30 mg/kg/10 ml orally twice a day for 8 days; 24 h urine collected after 7 days
Description: (Action on rat glomerular nephritis)
Rabbits were immunized several times with a renal glomerular basement membrane fraction obtained from WKY strain rats and an adjuvant. Thereafter, blood was collected to obtain a nephrotoxic serum (NTS). This NTS was diluted by 50 times with physiological saline, and the diluted NTS was once administered intravenously to male WKY rats of 8 weeks old in a dose of 2.5 ml per 1 kg of body weight to induce nephritis. In normal group of rats, the same volume of physiological saline was intravenously administered.
In the experiment, one group consisted of 6 rats, and each compound to be tested was suspended in water with small amount of Tween 80 (trade name, produced by Nacalai Tesque Co.), and was orally administered to the test group of rats at a dose of 30 mg/kg/10 ml twice a day for 8 days. In normal group and control group of rats, the same volume of water was orally administered instead of the test compound. After 7 days, the rats were placed in metabolic cages and urine was collected for 24 hours. Concentrations of protein in urine were measured by the sulfosalicylic acid method to determine amounts of protein excreted in the urine (mg/day). The inhibition rate of excretion of protein were calculated by the following equation. [formula]

Going from `C=CS(=O)(=O)NCC1Cc2ccc(-c3ccc(=O)[nH]n3)cc2C1` (stereo not drawn) [Example 4] to `C=CS(=O)(=O)NCCC1Cc2ccc(-c3ccc(=O)[nH]n3)cc2C1` (stereo not drawn) [Example 8], the “Inhibition rate (of excretion of protein in urine)” value (“Inhibition rate” below) rises from 61.5% to 71.6%.

First: CCS(=O)(=O)NCCC1Cc2ccc(-c3ccc(=O)[nH]n3)cc2C1 (stereo not drawn) [Example 6]
Second: CCCS(=O)(=O)NCCC1Cc2ccc(-c3ccc(=O)[nH]n3)cc2C1 (stereo not drawn) [Example 7]
The “Inhibition rate” value of the first is lower: 65.1% for the first, 77.2% for the second.

Going from `C=CS(=O)(=O)NCCCCC1Cc2ccc(-c3ccc(=O)[nH]n3)cc2C1` (stereo not drawn) [Example 12] to `C=CS(=O)(=O)NCCCC1Cc2ccc(-c3ccc(=O)[nH]n3)cc2C1` (stereo not drawn) [Example 19], the “Inhibition rate” value rises from 67.5% to 91.8%.
